For one compound, Activity results are on record in ChEMBL document CHEMBL5625177, “Recent advance of small-molecule drugs for clinical treatment of osteoporosis: A review” (Eur J Med Chem, 2023).

The test system of the experiment is Rattus norvegicus. Description: Anti-hypertensive activity in fructose fed-induced hypertensive rat assessed as increase in ionized calcium level in serum at 20 mg/kg administered once daily for 28 days. The class given is functional. As to conditions: time 28 day.

Molecules are shown by their SMILES.

In the case of `C=C1/C(=C\C=C2/CCC[C@]3(C)[C@@H]([C@H](C)CCCC(C)(C)O)CC[C@@H]23)C[C@@H](O)C[C@@H]1O` [CALCITRIOL], the Activity is 1.44 mM.
